Assay results published in paper PMC12396409, “Screening and hit evaluation of a microbial metabolite library against the pathogenic Plasmodium falciparum and Toxoplasma gondii parasites” (International Journal for Parasitology: Drugs and Drug …, 2025).
Read-outs that look alike come from different tables or passages of the source. Where a SMILES comes first, the peptide text is derived from it. Bridges are numbered along the chain shown (N, C = ends). The star is where a group is joined. X2 = CCCCCCCCCCCC(O)CC(=O)*

Columns and labels:
[1] = test system: T. gondii RH strain (RH-Tub-eYFP) tachyzoites; test: microbe, parasite or virus in culture; format: cell-based, Toxoplasma gondii; conditions: 72 h; for percent parasite growth at 2 µg/mL: Toxoplasma gondii
[2] = test system: P. falciparum 3D7 parasites; test: P. falciparum growth inhibition assay, 2-cycle (120 h treatment), delayed-death screen and dose-response; format: cell-based, Plasmodium falciparum; conditions: for activity at 2 µg/mL: Plasmodium falciparum, 3D7
[3] = test system: P. falciparum 3D7 parasites; test: P. falciparum growth inhibition assay, 1-cycle (72 h treatment), SYBR DNA staining (library screen at 2 μg/mL and dose-response); format: cell-based, Plasmodium falciparum; conditions: for activity at 2 µg/mL: Plasmodium falciparum, 3D7
[4] = T. gondii, screen at 2 μg/mL, replicate 1, read-out: Tg_72h_%Growth_Rep1
[5] = T. gondii, screen at 2 μg/mL, replicate 2, read-out: Tg_72h_%Growth_Rep2
[6] = P. falciparum, 120 h, screen at 2 μg/mL, replicate 1, read-out: Pf_120h_%Growth_Rep1
[7] = P. falciparum, 120 h, screen at 2 μg/mL, replicate 2, read-out: Pf_120h_%Growth_Rep2
[8] = P. falciparum, 72 h, screen at 2 μg/mL, replicate 1, read-out: Pf_72h_%Growth_Rep1
[9] = P. falciparum, 72 h, screen at 2 μg/mL, replicate 2, read-out: Pf_72h_%Growth_Rep2
[10] = library screen at 2 μg/mL, % growth, replicate 1, read-out: Tg_72h_%Growth_Rep1
[11] = library screen at 2 μg/mL, % growth, replicate 2, read-out: Tg_72h_%Growth_Rep2
[12] = library screen at 2 μg/mL, 120 h, % growth, replicate 1, read-out: Pf_120h_%Growth_Rep1
[13] = library screen at 2 μg/mL, 120 h, % growth, replicate 2, read-out: Pf_120h_%Growth_Rep2
[14] = library screen at 2 μg/mL, 72 h, % growth, replicate 1, read-out: Pf_72h_%Growth_Rep1
[15] = library screen at 2 μg/mL, 72 h, % growth, replicate 2, read-out: Pf_72h_%Growth_Rep2

C=C1CC[C@H]2C(C)(C)CCC[C@]2(C)[C@H]1C[C@@]12C[C@H]3C(=O)N4CCC=C4C(=O)N3[C@@H]1Nc1ccccc12 [Drimentine B]
Tg_72h_%Growth_Rep1 ([1]; library screen at 2 μg/mL, % growth, replicate 1): 108.85% | Tg_72h_%Growth_Rep2 ([1]; library screen at 2 μg/mL, % growth, replicate 2): 84.36% | Pf_120h_%Growth_Rep1 ([2]; library screen at 2 μg/mL, 120 h, % growth, replicate 1): 84.09% | Pf_120h_%Growth_Rep2 ([2]; library screen at 2 μg/mL, 120 h, % growth, replicate 2): 80.10% | Pf_72h_%Growth_Rep1 ([3]; library screen at 2 μg/mL, 72 h, % growth, replicate 1): 74.87% | Pf_72h_%Growth_Rep2 ([3]; library screen at 2 μg/mL, 72 h, % growth, replicate 2): 73.00%

O=C1NC(c2c[nH]c3ccc(O)cc23)=C/C1=C1\C(=O)Nc2ccccc21 [Violacein]
percent parasite growth at 2 µg/mL [1, 4]: 85.9% | percent parasite growth at 2 µg/mL [1, 5]: 106% | activity at 2 µg/mL [2, 6]: 170% | activity at 2 µg/mL [2, 7]: 91.7% | activity at 2 µg/mL [3, 8]: 83.3% | activity at 2 µg/mL [3, 9]: 90.2%

COc1cc2c(c3oc4cccc(O)c4c(=O)c13)[C@@H]1C=CO[C@@H]1O2 [Sterigmatocystin]
Tg_72h_%Growth_Rep1 ([1]; T. gondii, parasite screen 2 μg/mL, % growth, replicate 1): 117.93% | Tg_72h_%Growth_Rep2 ([1]; T. gondii, parasite screen 2 μg/mL, % growth, replicate 2): 89.47% | Pf_120h_%Growth_Rep1 ([2]; P. falciparum, 120 h, parasite screen 2 μg/mL, % growth, replicate 1): 5.33% | Pf_120h_%Growth_Rep2 ([2]; P. falciparum, 120 h, parasite screen 2 μg/mL, % growth, replicate 2): 4.61% | Pf_72h_%Growth_Rep1 ([3]; P. falciparum, 72 h, parasite screen 2 μg/mL, % growth, replicate 1): 4.81% | Pf_72h_%Growth_Rep2 ([3]; P. falciparum, 72 h, parasite screen 2 μg/mL, % growth, replicate 2): 2.16%

CCCCCCCCCCCC(O)CC(=O)NC(CC(C)C)C(=O)NC(CCC(=O)O)C(=O)NC1C(=O)NC(C(C)C)C(=O)NC(CC(C)C)C(=O)NC(CO)C(=O)NC(CC(C)C)C(=O)NC(CC(C)C)C(=O)NC(CO)C(=O)NC(C(C)C)C(=O)OC1C (stereo not drawn) [BIA-O1431] (X2-LETVLSLLSV; ester 3-C; configuration not given here)
Tg_72h_%Growth_Rep1 ([1]; T. gondii, parasite screen at 2 μg/mL, % growth, replicate 1): 138.54% | Tg_72h_%Growth_Rep2 ([1]; T. gondii, parasite screen at 2 μg/mL, % growth, replicate 2): 91.95% | Pf_120h_%Growth_Rep1 ([2]; P. falciparum 3D7, 120 h, parasite screen at 2 μg/mL, % growth, replicate 1): 94.38% | Pf_120h_%Growth_Rep2 ([2]; P. falciparum 3D7, 120 h, parasite screen at 2 μg/mL, % growth, replicate 2): 109.58% | Pf_72h_%Growth_Rep1 ([3]; P. falciparum 3D7, 72 h, parasite screen at 2 μg/mL, % growth, replicate 1): 80.05% | Pf_72h_%Growth_Rep2 ([3]; P. falciparum 3D7, 72 h, parasite screen at 2 μg/mL, % growth, replicate 2): 103.50%

O=C(N[C@H](COC(=O)[C@H](Cc1ccccc1)NC(=O)c1ccccc1)Cc1ccccc1)c1ccccc1 [Asperphenamate]
percent parasite growth at 2 µg/mL [1, 10]: 150% | percent parasite growth at 2 µg/mL [1, 11]: 107% | activity at 2 µg/mL [2, 12]: 69.7% | activity at 2 µg/mL [2, 13]: 85.4% | activity at 2 µg/mL [3, 14]: 84.3% | activity at 2 µg/mL [3, 15]: 83.3%

COc1ccc2c(c1OC)C(=O)OC2C1c2cc3c(cc2CCN1C)OCO3 (stereo not drawn) [BIA-H1954]
Tg_72h_%Growth_Rep1 ([1]; T. gondii RH, library screen at 2 μg/mL, % growth, replicate 1): 92.88% | Tg_72h_%Growth_Rep2 ([1]; T. gondii RH, library screen at 2 μg/mL, % growth, replicate 2): 95.07% | Pf_120h_%Growth_Rep1 ([2]; P. falciparum 3D7, 120 h, library screen at 2 μg/mL, % growth, replicate 1): 145.49% | Pf_120h_%Growth_Rep2 ([2]; P. falciparum 3D7, 120 h, library screen at 2 μg/mL, % growth, replicate 2): 80.33% | Pf_72h_%Growth_Rep1 ([3]; P. falciparum 3D7, 72 h, library screen at 2 μg/mL, % growth, replicate 1): 81.78% | Pf_72h_%Growth_Rep2 ([3]; P. falciparum 3D7, 72 h, library screen at 2 μg/mL, % growth, replicate 2): 87.48%

COC(=O)/C(=C1/OC(=O)C(c2ccccc2)=C1O)c1ccccc1 [Vulpinic acid]
percent parasite growth at 2 µg/mL [1, 4]: 109% | percent parasite growth at 2 µg/mL [1, 5]: 97.7% | activity at 2 µg/mL [2, 6]: 84.9% | activity at 2 µg/mL [2, 7]: 103% | activity at 2 µg/mL [3, 8]: 79.7% | activity at 2 µg/mL [3, 9]: 129%

CN[C@@H]1C[C@H]2O[C@@](C)([C@@H]1OC)n1c3ccccc3c3c4c(c5c6ccccc6n2c5c31)C(=O)N[C@H]4O [UCN-02]
Tg_72h_%Growth_Rep1 ([1]; T. gondii, screen at 2 μg/mL, replicate 1): 2.39% | Tg_72h_%Growth_Rep2 ([1]; T. gondii, screen at 2 μg/mL, replicate 2): 1.72% | Pf_120h_%Growth_Rep1 ([2]; P. falciparum, 120 h, screen at 2 μg/mL, replicate 1): 30.31% | Pf_120h_%Growth_Rep2 ([2]; P. falciparum, 120 h, screen at 2 μg/mL, replicate 2): 6.39% | Pf_72h_%Growth_Rep1 ([3]; P. falciparum, 72 h, screen at 2 μg/mL, replicate 1): 0.18% | Pf_72h_%Growth_Rep2 ([3]; P. falciparum, 72 h, screen at 2 μg/mL, replicate 2): -6.73%

C[C@@H](O)[C@H]1C(=O)N2C(C(=O)[O-])=C(SC3Cn4cnc[n+]4C3)[C@H](C)[C@H]12 (stereo partly drawn) [Biapenem]
percent parasite growth at 2 µg/mL [1, 10]: 116% | percent parasite growth at 2 µg/mL [1, 11]: 95.1% | activity at 2 µg/mL [2, 12]: 85.6% | activity at 2 µg/mL [2, 13]: 79.2% | activity at 2 µg/mL [3, 14]: 84.2% | activity at 2 µg/mL [3, 15]: 84.8%

COc1cc(-c2ccc(O)cc2)c(OC)c(O)c1-c1ccc(O)cc1 [Terphenyllin]
percent parasite growth at 2 µg/mL [1, 4]: 84.9% | percent parasite growth at 2 µg/mL [1, 5]: 103% | activity at 2 µg/mL [2, 6]: 179% | activity at 2 µg/mL [2, 7]: 102% | activity at 2 µg/mL [3, 8]: 87.2% | activity at 2 µg/mL [3, 9]: 91.8%
